Experimental data from PubChem BioAssay (NCI).
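Method: 48-hour compound exposure of cells in 96-well plates, five concentrations, linear interpolation of endpoints. GI50 marks 50% less growth. The concentration for full growth arrest is given as TGI.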

How the values were obtained:
Experiment in all cases: inhibition of tumour cell growth, NCI panel, 48 h; in the data active means GI50 below about 0.43 µM; inactive means the rest
[1] = test system: 786-0 renal
[2] = test system: A549 NSCLC
[3] = test system: CAKI-1 renal
[4] = test system: CCRF-CEM leukemia
[5] = test system: COLO 205 colon
[6] = test system: DU-145 prostate
[7] = test system: EKVX NSCLC
[8] = test system: HCC-2998 colon
[9] = test system: HCT-15 colon
[10] = test system: HL-60(TB) leukemia
[11] = test system: HOP-62 NSCLC
[12] = test system: HT29 colon
[13] = test system: IGROV1 ovarian
[14] = test system: K-562 leukemia
[15] = test system: KM12 colon
[16] = test system: M14 melanoma
[17] = test system: MALME-3M melanoma
[18] = test system: MCF7 breast
[19] = test system: MDA-MB-231 breast
[20] = test system: MDA-N
[21] = test system: MOLT-4 leukemia
[22] = test system: NCI-H23 lung
[23] = test system: OVCAR-8 ovarian
[24] = test system: PC-3 prostate
[25] = test system: RPMI-8226 leukemia
[26] = test system: RXF 393 renal
[27] = test system: SF-268 CNS
[28] = test system: SF-295 CNS
[29] = test system: SK-MEL-28 melanoma
[30] = test system: SK-MEL-5 melanoma
[31] = test system: SK-OV-3 ovarian
[32] = test system: SN12C renal
[33] = test system: SNB-75 CNS
[34] = test system: SR leukemia
[35] = test system: SW-620 colon
[36] = test system: T-47D breast
[37] = test system: TK-10 renal
[38] = test system: UACC-257 melanoma
[39] = test system: UACC-62 melanoma
[40] = test system: A498 renal
[41] = test system: ACHN renal
[42] = test system: BT-549 breast
[43] = test system: HCT-116 colon
[44] = test system: HOP-92 NSCLC
[45] = test system: LOX IMVI melanoma
[46] = test system: MDA-MB-435
[47] = test system: NCI-H226 lung
[48] = test system: NCI-H460 lung
[49] = test system: NCI-H522 lung
[50] = test system: NCI/ADR-RES ovarian
[51] = test system: OVCAR-3 ovarian
[52] = test system: OVCAR-4 ovarian
[53] = test system: OVCAR-5 ovarian
[54] = test system: SF-539 CNS
[55] = test system: SK-MEL-2 melanoma
[56] = test system: SNB-19 CNS
[57] = test system: U251 CNS
[58] = test system: UO-31 renal
[59] = test system: HS 578T breast

N#Cc1ccc(NC(=NCC(=O)O)Nc2cccc3ccccc23)cc1
> 10 µM: TGI [1] | TGI [2] | TGI [3] | TGI [4] | TGI [5] | TGI [6] | TGI [7] | TGI [8] | TGI [9] | TGI [10] | TGI [11] | TGI [12] | TGI [13] | TGI [14] | TGI [15] | TGI [16] | TGI [17] | TGI [18] | TGI [19] | TGI [20] | TGI [21] | TGI [22] | TGI [23] | TGI [24] | TGI [25] | TGI [26] | TGI [27] | TGI [28] | TGI [29] | TGI [30] | TGI [31] | TGI [32] | TGI [33] | TGI [34] | TGI [35] | TGI [36] | TGI [37] | TGI [38] | TGI [39]

C=CC(C)(C)n1cc(C2=C3OC(=O)C(c4cn(C(C)(C)C=C)c5ccccc45)=C3OC2=O)c2ccccc21
> 100 µM: TGI [1] | TGI [40] | TGI [2] | TGI [41] | TGI [42] | TGI [3] | TGI [4] | TGI [5] | TGI [6] | TGI [7] | TGI [8] | TGI [43] | TGI [9] | TGI [10] | TGI [11] | TGI [44] | TGI [12] | TGI [13] | TGI [14] | TGI [15] | TGI [45] | TGI [16] | TGI [17] | TGI [18] | TGI [19] | TGI [46] | TGI [20] | TGI [21] | TGI [47] | TGI [22] | TGI [48] | TGI [49] | TGI [50] | TGI [51] | TGI [52] | TGI [53] | TGI [23] | TGI [24] | TGI [25] | TGI [26] | TGI [27] | TGI [28] | TGI [54] | TGI [55] | TGI [29] | TGI [30] | TGI [32] | TGI [56] | TGI [33] | TGI [34] | TGI [35] | TGI [37] | TGI [57] | TGI [38] | TGI [58]

Cc1cc(C)c(C(=O)CC(=O)c2cccnc2)c(C)c1
57 µM: TGI [44]
inactive: GI50 [1] 9.45 µM | GI50 [40] 18.8 µM | GI50 [2] 6.97 µM | GI50 [41] 6.28 µM | GI50 [42] 2.25 µM | GI50 [3] 1.34 µM | GI50 [4] 4.1 µM | GI50 [5] 8.01 µM | GI50 [6] 12.2 µM | GI50 [7] 3.97 µM | GI50 [8] 12.8 µM | GI50 [43] 4.31 µM | GI50 [9] 3.36 µM | GI50 [10] 8.59 µM | GI50 [11] 6.32 µM | GI50 [44] 7.47 µM | GI50 [59] 9.4 µM | GI50 [12] 4.85 µM | GI50 [13] 4.39 µM | GI50 [14] 3.71 µM | GI50 [15] 8.01 µM | GI50 [45] 4.84 µM | GI50 [16] 5.31 µM | GI50 [17] 14.1 µM | GI50 [18] 5.96 µM | GI50 [19] 11.2 µM | GI50 [46] 7.48 µM | GI50 [21] 4.41 µM | GI50 [47] 7.34 µM | GI50 [22] 11.1 µM | GI50 [48] 3.39 µM | GI50 [49] 13.4 µM | GI50 [50] 2.29 µM | GI50 [51] 5.78 µM | GI50 [52] 8.59 µM | GI50 [53] 9.84 µM | GI50 [23] 4.58 µM | GI50 [24] 8.73 µM | GI50 [25] 5.31 µM | GI50 [26] 10.7 µM | GI50 [27] 10.5 µM | GI50 [28] 2.78 µM | GI50 [54] 6.93 µM | GI50 [55] 17.3 µM | GI50 [29] 14 µM | GI50 [30] 7.56 µM | GI50 [31] 9.04 µM | GI50 [32] 9.35 µM | GI50 [56] 6.34 µM | GI50 [33] 26.6 µM | GI50 [34] 2.81 µM | GI50 [35] 4.72 µM | GI50 [36] 10.2 µM | GI50 [37] 9.77 µM | GI50 [57] 3.67 µM | GI50 [38] 27.2 µM | GI50 [39] 4.52 µM | GI50 [58] 4.63 µM
60.2 µM: TGI [26]
33.2 µM: TGI [34]
45.7 µM: TGI [54]
9.88 µM: TGI [50]
77.4 µM: TGI [51]
45.8 µM: TGI [4]
82.9 µM: TGI [48]
86.8 µM: TGI [47]
50.1 µM: TGI [1]
83.5 µM: TGI [28]
5.52 µM: TGI [3]
33.9 µM: TGI [42] | TGI [16]
69.6 µM: TGI [7]
41.8 µM: TGI [39]
94.1 µM: TGI [40]
> 100 µM: TGI [2] | TGI [41] | TGI [5] | TGI [6] | TGI [8] | TGI [43] | TGI [9] | TGI [11] | TGI [59] | TGI [12] | TGI [13] | TGI [14] | TGI [15] | TGI [45] | TGI [17] | TGI [18] | TGI [19] | TGI [46] | TGI [22] | TGI [49] | TGI [52] | TGI [53] | TGI [23] | TGI [24] | TGI [25] | TGI [27] | TGI [55] | TGI [29] | TGI [30] | TGI [31] | TGI [32] | TGI [56] | TGI [33] | TGI [35] | TGI [36] | TGI [37] | TGI [57] | TGI [38] | TGI [58]
31.7 µM: TGI [10]
38.4 µM: TGI [21]
